From patent US5629173A, “Methods of use of serine protease variants having peptide ligase activity” (priority 1995, dated 1997)
Residues, ends and D or L forms follow the SMILES beside them.

Experiments:
[1] = molecular target: T1, peptide ligase acylated by s-Ala-Ala-Pro-Phe (Bacillus amyloliquefaciens, UniProt P00782, P332A/S328C); assay: Aminolysis efficiency of di- and tri-amino acid peptide nucleophiles (Table IV); assay type: biochemical; details: for apparent second order rate constants for the reaction of the nucleophile with the acylated peptide ligase, compared: peptides amidated at the carboxy terminus, low peptide concentrations, pH 8.0, 25 C
T1 construct: made in house
T1 sequence (P00782 108-382 S328C/P332A): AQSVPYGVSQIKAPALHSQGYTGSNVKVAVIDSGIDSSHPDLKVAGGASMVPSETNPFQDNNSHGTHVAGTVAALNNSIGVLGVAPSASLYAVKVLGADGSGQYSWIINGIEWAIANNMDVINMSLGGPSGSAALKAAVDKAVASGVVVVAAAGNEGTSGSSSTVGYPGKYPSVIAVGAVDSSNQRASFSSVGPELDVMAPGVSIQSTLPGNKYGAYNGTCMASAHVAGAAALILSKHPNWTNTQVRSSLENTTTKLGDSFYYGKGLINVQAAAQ
Procedure: Enzymatic ligation of peptides were performed at (25±0.2° C.) in 90 mM Tricine (pH 8.0), 2% (v/v) dimethylacetamide, 0.005% (v/v) Tween 80. The comparison between substrates having different leaving groups was simplified by measuring initial reaction rates at a low substrate concentrations (70-75 μM) and at a higher concentration (1.33 mM) where rates are proportional to kcat/KM and the kcat, respectively (Fersht (1977) in Enzyme Structure and Mechanism, W. H. Freeman & Co. USA). The higher substrate concentration may still be below the KM for some of the substrates, so that values for kcat are less accurate. The aminolysis with di- and tripeptides was performed at low peptide concentrations. The aminolysis rate V=kaminolysis [N][E-Ac]/KN, where [N] is the nucleophile concentration, [E-Ac] is the concentration of acyl-enzyme intermediate and KN is the dissociation constant for the binding of the nucleophile to the acyl-enzyme intermediate (Riechmann and Kasche (1985), Biochem. Biophys. Acta., 830, 164-172). Since KN=[N][E-Ac]/[N·E-Ac] a change in [N] will result in a change in [E-Ac] but at low [N], [E-Ac]>>[N·E-Ac] and kaminolysis /KN (the apparent second order rate constants for the reaction between the different nucleophile and the acyl-enzyme intermediate) may be compared. The concentrations of the peptide nucleophiles, and the calibration of the absorbance data for the different ligation products was obtained from amino acid composition analysis. The rates of peptide ligation were measured at four or five different concentrations for each nucleophile.
Ligation reactions were analyzed by taking aliquots at different times and analyzing the peptide products by C-18 reversed phase HPLC. Peptides were eluted in a gradient of acetonitrile/0.1% TFA in water/0.1% TFA and the absorbance at 214 nm monitored. Amino acid composition analysis was used to confirm both the hydrolysis and aminolysis products and to calibrate the absorbance values. The structures of the hydrolysis and aminolysis products (using the dipeptide Ala-Phe-amide as a nucleophile) were confirmed by mass spectrometrical analysis.

[2] = Esterase activity, hydrolysis of activated ester substrate; assay type: biochemical; details: ratio of the apparent second order rate constants (kcat/KM)
Procedure: The esterase and amidase activities were obtained from initial rate measurements using a Kontron Uvikon 860 spectrophotometer. The assay for esterase activity utilized the substrate s-Ala-Ala-Pro-Phe-Sbz at (25±0.2° C.) in 100 mM Tris-HCl (pH 8.60), 4% (v/v) dimethylsulfoxide, 0.005% (v/v) Tween 80. With the non-cysteine containing proteases, DTNB (Ellman (1959), Arch. Biochem. Biophys., 82, 70-77) was added to a concentration of 37.5 μM to visualize the release of thiolbenzoate upon hydrolysis of the substrate. […] The amidase activities were measured under identical conditions by following the increase in absorbance at 412 nm upon hydrolysis of p-nitroanilide from s-Ala-Ala-Pro-Phe-pNA.

C[C@H](N)C(=O)N[C@@H](Cc1ccccc1)C(N)=O [AF, Ala-Phe-amide]
apparent second order rate constants for the reaction of the nucleophile with the acylated peptide ligase, compared [1]: 1.0

C[C@H](N)C(=O)N[C@@H](Cc1ccccc1)C(=O)N[C@@H](C)C(N)=O [AFA, Ala-Phe-Ala-amide] (H-Ala-Phe-Ala-NH2)
apparent second order rate constants for the reaction of the nucleophile with the acylated peptide ligase, compared [1]: 2.0

NC(=O)CNC(=O)[C@@H](N)Cc1ccccc1 [FG, Phe-Gly-amide] (H-Phe-Gly-NH2)
quality as ligation substrate, in words ([1]; compared with NH2-Gly-Phe-amide): extremely poor ligation substrates
apparent second order rate constants for the reaction of the nucleophile with the acylated peptide ligase, compared [1]: 0.006

C[C@H](NC(=O)CN)C(N)=O [GA, Gly-Ala-amide] (H-Gly-Ala-NH2)
apparent second order rate constants for the reaction of the nucleophile with the acylated peptide ligase, compared [1]: 0.1

NCC(=O)N[C@@H](Cc1ccccc1)C(N)=O [GF, Gly-Phe-amide] (H-Gly-Phe-NH2)
apparent second order rate constants for the reaction of the nucleophile with the acylated peptide ligase, compared [1]: 0.8

CC(C)C[C@H](NC(=O)CN)C(N)=O [GL, Gly-Leu-amide]
apparent second order rate constants for the reaction of the nucleophile with the acylated peptide ligase, compared [1]: 0.3

CC(C)C[C@H](N)C(=O)N[C@@H](Cc1ccccc1)C(N)=O [LF, Leu-Phe-amide] (H-Leu-Phe-NH2)
apparent second order rate constants for the reaction of the nucleophile with the acylated peptide ligase, compared [1]: 0.3

CC(C)C[C@H](N)C(=O)N[C@@H](Cc1ccccc1)C(=O)N[C@@H](CC(=O)O)C(N)=O [LFD, Leu-Phe-Asp-amide] (H-Leu-Phe-Asp-NH2)
apparent second order rate constants for the reaction of the nucleophile with the acylated peptide ligase, compared [1]: 0.3

N=C(N)NCCC[C@H](N)C(=O)N[C@@H](Cc1ccccc1)C(N)=O [RF, Arg-Phe-amide]
faster to aminolyze than Arg-Gly [1]: ~100 fold
apparent second order rate constants for the reaction of the nucleophile with the acylated peptide ligase, compared [1]: 2.0

N=C(N)NCCC[C@H](N)C(=O)NCC(N)=O [RG, Arg-Gly-amide] (H-Arg-Gly-NH2)
apparent second order rate constants for the reaction of the nucleophile with the acylated peptide ligase, compared [1]: 0.04

B1: wild type: wild type subtilisin from Bacillus amyloliquefaciens (subtilisin BPN') (protein, UniProt P00782 108-382, looked up)
Subtilisin BPN': AQSVPYGVSQIKAPALHSQGYTGSNVKVAVIDSGIDSSHPDLKVAGGASMVPSETNPFQDNNSHGTHVAGTVAALNNSIGVLGVAPSASLYAVKVLGADGSGQYSWIINGIEWAIANNMDVINMSLGGPSGSAALKAAVDKAVASGVVVVAAAGNEGTSGSSSTVGYPGKYPSVIAVGAVDSSNQRASFSSVGPELDVMAPGVSIQSTLPGNKYGAYNGTSMASPHVAGAAALILSKHPNWTNTQVRSSLENTTTKLGDSFYYGKGLINVQAAAQ
esterase/amidase [2]: 4.8
